According to patent US9687558B2, “Antitumoral bioconjugates of hyaluronic acid or its derivatives obtained by indirect chemical conjugation, and their use in the pharmaceutical field” (priority 2005, dated 2017):

How the values were obtained:
[1] = Mathijssen R H et al., Clin Cancer Res, 2001; cited from earlier work
[2] = tested on: colic adenocarcinoma HT29 cells; test: Cytotoxicity test in vitro on HT29 cells, MTT colorimetric assay; assay type: cell-based; settings: 48 hours of contact, HA derivatives in 5% glucosated solution, SN38 in DMSO
Procedure: Evaluation of the Antiproliferative Activity of the Ester Conjugate HA/SN38 having a Substitution Degree Equal to 10% and 15%, on the Cellular Line of Colic Adenocarcinoma HT29
Aliquots of the derivatives obtained from examples 1 and 2 are characterized by means of a cytotoxicity test in vitro on a line of colic tumoral cells called HT29. The comparison was effected with SN38 dissolved in DMSO. The HA derivatives are solubilized in a glucosated solution at 5% at a concentration of 5 mg/ml. The test is effected by depositing on a plate with 96 cavities, 3000 cells per cavity; after 24 hours of incubation at 37° C., the cells are put in contact with the solutions and after a further 48 hours the cell vitality is determined by means of a MTT colorimetric assay (Dezinot F. et al., J. Immunol Methods, 1986, 22(89):271-277).
The proliferation curves referring to the two ester conjugates of HA are shown in the graphs (on the left the cytotoxic activity of the derivative at 15%, on the right that at 10%), see FIG. 4.
By comparing the data of EC50 with SN38 in dimethylsulfoxide (DMSO) the following results are obtained: […]

[3] = tested on: DHD/K12 cells (MDR colon-rectum adenocarcinoma model); test: Cytotoxicity test in DHD/K12 cells, LIVE/DEAD Cell Vitality Assay; assay type: cell-based, rat; settings: 0.25 μM, 48 hours of treatment
Procedure: The cellular line used derives from rats of the BDIX strain treated with 1,2-dimethylhydrazine.
In order to evaluate the degree of cellular vitality the LIVE/DEAD Cell Vitality Assay (Molecular Probes) was used, which allows metabolically active cells to be distinguished from dead cells: the latter emit green fluorescence at a nuclear level whereas live cells emit red fluorescence localized on the cellular membrane and in the cytoplasm. After colouring, the cells were analyzed using a confocal microscope and the percentage of live/dead cells was evaluated by counting a minimum of 500 live or dead cells per sample.

Row | Compound | antitumoral activity relative to commercial prodrug (Irinotecan) [1] [times] | EC50 [2] [nM] | cytotoxic effect at low concentration [3]
1 | CCc1c2c(nc3ccc(O)cc13)-c1cc3c(c(=O)n1C2)COC(=O)[C@]3(O)CC [SN38 in DMSO, SN38] | 100 to 1000 | 5 | –
2 | COc1cccc2c1C(=O)c1c(O)c3c(c(O)c1C2=O)C[C@@](O)(C(=O)CO)C[C@@H]3O[C@H]1C[C@H](N)[C@H](O)[C@H](C)O1 [doxorubicin] | – | – | does not have any cytotoxic effect
